Test results from a melting point compilation (Tetko et al.; mined from patent text by program, amines drawn as free bases though some values may be those of a salt).

Point of comparison: `Cc1cccc(NC(=O)NCC(=O)N(Cc2ccccc2)c2ccccc2)c1`, melting point 175 °C. Against it:
- CC(C)(C)c1ccc(-c2nc(Cl)c3ccccc3n2)cc1 — lower, 75 to 76.5 °C
- CC1=NOC(c2c(S(C)(=O)=O)ccc(C(=O)C3=C(O)CCCC3=O)c2C)C1 (stereo not drawn) — lower, 135 to 140 °C
- N#CC(Cc1ccccc1)C(=O)O (stereo not drawn) — lower, 97 °C
- c1ccc(-c2cc3nnc(-c4cnccn4)n3nc2OCc2nc[nH]n2)cc1 — higher, 255 °C
- Cc1cccc2c1ccc1c3occ(C)c3c(=O)oc21 — not separable, 173 to 175 °C
- CC1(C2CCCC2)Cc2cc(OCCCCCC(=O)O)c(Cl)c(Cl)c2C1=O (stereo not drawn) — lower, 127 to 129 °C
- CCc1c(OC)cc(C2CNC(=O)C2)cc1OC (stereo not drawn) — lower, 156 °C
- CC(=O)Nc1cc(N)c(Cl)cc1NC(C)=O — higher, 237 °C
- CCOC(=O)c1ccsc1NC(=O)NCCN1CCN(c2ccc(OC)cc2)CC1 — lower, 103 to 106 °C
- CCCc1nnc2n1-c1ccc(Br)cc1C(c1ccccn1)=NC2 — higher, 184 to 186 °C
- Fc1ccc(C(=C2SCCCS2)c2ccc(F)cc2)cc1 — lower, 169 to 171 °C
- Cn1nc(-c2cccnc2)c(C=Cc2ccccc2C(=O)O)c1Cl — higher, 183 to 185 °C
- COC(=O)C1=C(C)NC(C)=C(C#N)C1c1cccc(N)c1 (stereo not drawn) — higher, 234 to 235 °C
- CC(C)(C)c1cc(OCc2ccc(C#N)cc2)cc(C(C)(C)C)c1O — lower, 166 to 169 °C
- CCCP(=O)(CCC)COS(=O)(=O)c1c(C)cccc1Cl — lower, 51 to 53 °C
- Cc1c(Br)c(=O)c(-c2ccc(Cl)cc2)c(C)n1C — higher, 264 to 266 °C
- Cc1cc(N)nc(Br)c1 — lower, 99 °C
- CC(C)c1ccc2c(CCCCN(C)S(=O)(=O)c3ccccc3)cc(C(=O)O)c-2cc1 — lower, 153 to 155 °C
- COc1ccc(CCC(C)(C)NCC(O)c2cccc(Cl)c2)cc1 (stereo not drawn) — lower, 50 to 53 °C
- COc1ccc(CN(C)CCc2ccc(NC(=O)c3cccc(C(=O)c4ccccc4)c3)cc2)cc1OC — lower, 130 °C
- CC(C=O)C1CCC2C3CCC4CCCCC4(C)C3CCC12C (stereo not drawn) — higher, 248 to 252 °C
- O=C(NC(=O)c1c(F)cccc1F)Nc1ccc2c(c1)C(F)(F)C(F)(F)O2 — higher, 183 to 184 °C
- CNS(=O)(=O)c1ccccc1Nc1nc(Nc2ccc3c(c2)CCCC(=O)N3CC(=O)O)ncc1Cl — higher, 192 to 195 °C
- NS(=O)(=O)NC[C@H]1COc2cc(Cl)c(Cl)cc2O1 — lower, 119 to 121 °C
- COC(=O)c1cc2nc(C)n(C)c2cc1C(=O)OC — lower, 147 to 148 °C
- COc1ccccc1-n1cnnc1C(F)(F)F — lower, 62 °C
- COc1ccc(S(=O)(=O)N2C(=O)C(N)(c3ccccc3Cl)c3cc(Cl)ccc32)c([N+](=O)[O-])c1 (stereo not drawn) — higher, 192 to 195 °C
- Cc1nccc(N2CCC(C(=O)N3CCN(S(=O)(=O)c4ccc(Br)cc4)CC3)CC2)n1 — higher, 200 to 202 °C
- CCOC(=O)C(=O)CC(=O)CC(=O)c1ccc(C)cc1 — lower, 76 °C
- FC(F)(F)Oc1ccc(Nc2cc(-c3ccccc3)nc(-c3ccccc3)n2)cc1 — higher, 220 to 222 °C
- Cc1ccc(C(=CC=O)c2ccc(C)cc2)cc1 — lower, 92 to 93.5 °C
- CNC(=S)SCCC(=O)N1CCC[C@H]1C(=O)OC(C)(C)C — lower, 129 to 130 °C
- c1cc2c3c(ccc(OCCCN4CCCCC4)c3c1)-c1cc(OCCCN3CCCCC3)ccc1-2 — lower, 92 to 93 °C
- O=C(O)c1ccc2c(c1)S(=O)(=O)N=C(n1ccnc1)N2 — higher, > 300 °C
- Cc1cccc(C)c1-n1c(C)c(C#N)c(=O)[nH]c1=O — higher, 302 to 303 °C
- CCCCCCCCN(C)C(=O)C(C)(C)n1cc(C)c(-c2ccccc2)n1 — lower, 75 to 78 °C
- Cc1[nH]cnc1CSCCNc1[nH]ccc1[N+](=O)[O-] — lower, 161 to 162 °C
- CCOc1ncc(C(C)=O)cc1C(=O)O — lower, 117 to 118 °C
- CC(=O)CC1=C(C#N)C(c2cccc(C#N)c2Br)c2c[nH]nc2N1 (stereo not drawn) — higher, 230 °C
- Cc1nc(NC(=O)c2cnn3c(C(F)F)cc(-c4ccc(C(F)(F)F)cc4)nc23)sc1S(=O)(=O)NC(C)(C)CO — higher, 268 °C
- O=C(c1cccc(C(F)(F)F)c1)c1cc2cccc(Br)c2o1 — lower, 75 to 78 °C
- CC(C)C(=O)CNC(=O)c1ccccc1 — lower, 78 to 80 °C
- O=C(N[C@H]1C[C@H](C(=O)O)Nc2cc(Cl)cc(Cl)c21)C1c2ccccc2-c2ccccc21 (relative stereo) — higher, 266 to 268 °C
- Cc1cc2cc(N(C(=O)Nc3ccc(F)cc3F)c3ccccc3Cl)c(=O)oc2cc1C — higher, 212 to 214 °C
- CN(c1cc(OC(F)(F)F)cc2cc(C3=NCC(CCO)S3)[nH]c12)S(=O)(=O)c1cccs1 (stereo not drawn) — lower, 152 to 153 °C
- Cc1cccc2nnc(-c3ccccc3)c(O)c12 — higher, 215 to 217 °C
- Cn1cc([C@H]2CC[C@@H](N3CCN(c4cc(C(=O)O)cc5cccnc45)CC3)CC2)c2cc(C#N)ccc21 — higher, 230 °C
- CCN1C(=O)C(C)(C)C(=O)N(C)c2cc(CN(CCn3ccc4oc(C)cc4c3=O)Cc3cccnc3Cl)ccc21 — lower, 159 to 161 °C
- C/C(=N/O)[C@@H]1C[C@H](C(=O)OC(C)(C)C)N(C(=O)CNC(=O)Nc2cccc(C)c2)[C@@H]1c1ccccc1 (racemic) — lower, 166 °C
- CCOC(=O)CCc1cn(Cc2ccc(OCc3coc(-c4ccccc4)n3)cc2)nc1OCC — lower, 80 to 81 °C
- CC(C)Oc1cc(-n2c(=O)c(F)c(C(F)(F)F)n(C)c2=O)c(F)cc1Cl — lower, 104 to 107 °C
- CCOC(=O)CCN1CCN(C2=Nc3ccccc3Sc3ccc(Cl)cc32)CC1 — lower, 79 to 80 °C
- CC(C)C1CCC(C)(OC(=O)OC2(C)CCC(C(C)C)CC2)CC1 (stereo not drawn) — lower, 101 to 102 °C
- NC1CCCC(NC(=O)c2ccc(-c3[nH]nc4c3C(=O)c3c(NC(=O)NN5CCOCC5)cccc3-4)s2)C1 (stereo not drawn) — higher, > 300 °C
- O=C(c1cccc(O)c1)c1sc2cc(O)ccc2c1-c1ccccc1 — higher, 202 °C
- CCOC(=O)c1cnc2n(c1=O)C(C)CCC2=NN (stereo not drawn) — higher, 199 to 200 °C
- O=C(Nc1nnn[nH]1)c1csc(-c2ncccc2O)n1 — higher, > 300 °C
- CSc1cc(C)nc(SC)c1NC(=O)CCCCCCCSc1nc2c(C)c(Cl)cc(C(C)C)c2o1 — lower, 128 to 131 °C
- Cc1ccnc(NC(c2ccc([N+](=O)[O-])cc2)c2ccc3cccnc3c2O)n1 (stereo not drawn) — lower, 136 to 145 °C
- O=c1[nH]ccn1-c1ccc(F)cc1F — higher, 192 to 194 °C
- O=C(O)C(O)=CC(=O)c1cc(Cc2ccc(F)cc2F)cn(Cc2ccccc2F)c1=O — higher, 187 to 189 °C
- COc1cc(-n2cnc3cc(-c4ccc(Cl)cc4)sc3c2=O)ccc1OCC1(OP(=O)(O)O)CC(F)(F)C1 — higher, 219 °C
- CC=CCNc1cc(C(=O)O)cc(S(N)(=O)=O)c1Nc1ccc(N)cc1 — higher, 208 °C
- Cc1nn(C)c(C)c1-c1cccc(-n2c(N)nc3ccccc32)c1 — higher, 198 to 200 °C
- Cc1ccc(-c2ccc3c(c2)C=C(C(=O)Nc2ccc(CSC4CCCCC4)cc2)CCO3)cc1 — lower, 161 to 162 °C
- COC(=O)c1cccc(Sc2ccc(N(C)C)cc2)c1 — lower, 88 to 90 °C
- CONC(=O)c1cc2c(Sc3ccc(C)cc3)cncc2s1 — higher, 200 to 203 °C
- N#Cc1ccc(Nc2nc(Oc3c(Br)cc(Br)cc3Br)ccc2[N+](=O)[O-])cc1 — higher, 188 to 191 °C
- Cc1cc(-c2cnn3c(C(F)F)cc(-c4ccc(C(F)(F)F)c(C)c4)nc23)ccn1 — higher, 221 °C
- COC(=O)c1ccc(Cn2c(=O)c3cc(C(=O)NCc4ccc(OC)cc4)sc3n(C)c2=O)cc1C — higher, 179 to 181 °C
- Nc1nc(Cl)cc(NC2C=CC(CO)C2)n1 (stereo not drawn) — lower, 132 to 134 °C
- Cc1cnc2c(NC(=O)c3c(Cl)cccc3Cl)ccc(C)c2c1N1CCN(C)C1=O — higher, > 300 °C
- CCOC(=O)Cc1c2n(c3ccc(F)cc13)C(c1ccc(SC)cc1)=NCC2 — lower, 119 to 120 °C
- N#CC(C(=O)c1cccnc1)c1ccccc1 (stereo not drawn) — lower, 148 to 149 °C
- CC(C)(C)Nc1c(Nc2ccc3ncccc3c2)c(=O)c1=O — higher, 234 to 236 °C
- CCOC(=O)C1=C(C)N=C(NC)N(C(=O)OCC)C1c1cccc([N+](=O)[O-])c1 (stereo not drawn) — lower, 112 to 114 °C
- CC(C)(O)Cn1c(CO)nc2c(N)nc3cc(CCS(C)(=O)=O)ccc3c21 — higher, 221 to 223 °C
- O=c1cc(OCc2ccccc2)c2ccc(O)cc2o1 — higher, 234 °C
- O=C(O)C(=O)CC(=O)c1cccn1CCc1ccccc1 — lower, 168 to 170 °C
- CCOC(=O)c1cnn2c(-c3ccccc3C(F)(F)F)ccnc12 — lower, 148 to 149 °C
- CC(=O)c1cc2cccc(NS(=O)(=O)c3cccs3)c2[nH]1 — higher, 241 to 243 °C
- O=C(CP(=O)(O)O)NCc1ccccc1 — lower, 130 to 134 °C
- CC(C)(C)OC(=O)N[C@@H](Cc1ccccc1)[C@H](O)CNC1(c2cccc(C(F)(F)F)c2)CC1 — lower, 124 °C
- CCOC(=O)C1=C(C)NC(c2cnc(Cl)s2)=NC1c1ccc(F)cc1Cl (stereo not drawn) — lower, 159 to 162 °C
- CC(Br)C(=O)c1ccc2c(c1)C(C)NC(=O)N2 (stereo not drawn) — lower, 153 to 156 °C
- COc1ccc(C(=O)Nc2nc3ccc(N(C)C)cc3c(N=Cc3ccccc3)c2C#N)cc1 — higher, 185 °C
- O=P(O)(CCCNCc1cc(Cl)cc(Cl)c1)CC1CCCCC1 — higher, 231 to 233 °C
- CCS(=O)(=O)c1cc(OC)c(OC)c(C(=O)Cl)c1 — lower, 67 to 68 °C
- CC/C=C\C/C=C\C/C=C\CCCCCCCC(=O)Nc1c(OC)cc(OC)cc1OC — lower, 86 to 88 °C
- Cc1cccc(CCC(O)(P(=O)(O)O)P(=O)(O)O)c1N — lower, 133 °C
- O=C(c1cc2cccc(NS(=O)(=O)c3cccs3)c2[nH]1)N(Cc1ccccc1)Cc1ccccc1 — higher, 198 to 199 °C
- CSc1nn(C(C)(C)C)c(=O)c(Cl)c1C1C=CC(C(C)(C)C)CC1 (stereo not drawn) — lower, 82 to 84 °C
- ClCCOc1ccc(/C=C/c2nc3ccccc3s2)cc1 — lower, 92 to 94 °C
- Oc1ccc2c(c1O)OCC(c1ccc(F)cc1)C2 (stereo not drawn) — lower, 166 to 168 °C
- OC(CN1CCC(O)(Cc2ccccc2)CC1)c1ccc(Cl)cc1 (stereo not drawn) — lower, 151 to 152 °C
- CCC1c2cc(Cl)ccc2-c2ccc(Cl)cc21 — lower, 80 to 83 °C
- Cc1cc2c(cc1O)C(C1(c3ccccn3)CC1)N(C)CC2 (stereo not drawn) — higher, 218 °C
